Read-outs that look alike come from different tables or passages of the source.
Legend:
hSCN3A sodium channels [1] = target: T1, hSCN3A sodium channels (Homo sapiens, UniProt Q9NY46); experiment: hSCN3A electrophysiology, whole-cell patch-clamp or PatchXpress 7000, estimated IC-50 (Table B); assay type: cell-based
T1 construct: expressed in transfected cells
Procedure: Human Embryonic Kidney (HEK) cells were transfected with an hSCN3A construct using lipofectamine reagent (Invitrogen), using standard techniques. […] Clones were screened for expression using the whole-cell voltage-clamp technique.
HEK cells stably transfected with hSCN3A were maintained in DMEM medium supplemented with 10% heat-inactivated fetal bovine serum and 400 μg/ml G418 sulfate in an incubator at 37° C. with a humidified atmosphere of 10% CO2. […] For electrophysiological studies, cells were removed from the culture flask by brief trypsinization and replated at low density onto glass cover slips. Cells were typically used for electrophysiological experiments within 24 to 72 h after plating.
All recordings were made at room temperature (22-24° C.) using AXOPATCH 200B amplifiers and PCLAMP software (Axon Instruments, Burlingame, Calif.) or PatchXpress 7000 hardware and associated software (Axon Instruments, Burlingame, Calif.).
Current records were acquired at 20 to 50 KHz and filtered at 5 to 10 KHz.
HEK cells stably transfected with hSCN3A were viewed under Hoffman contrast optics and placed in front of an array of flow pipes emitting either control or compound-containing extracellular solutions. All compounds were dissolved in dimethyl sulfoxide to make 10 mM stock solutions, which were then diluted into extracellular solution to attain the final concentrations desired.
The voltage-dependence of inactivation was determined by applying a series of depolarizing prepulses (8 sec long in 10 mV increments) from a negative holding potential. The voltage was then immediately stepped to 0 mV to assess the magnitude of the sodium current. Currents elicited at 0 mV were plotted as a function of prepulse potential to allow estimation of the voltage midpoint of inactivation (V1/2). Cells were then voltage clamped at the empirically determined V1/2.
Compounds were tested for their ability to inhibit hSCN3A sodium channels by activating the channel with a 20 msec voltage step to 0 mV following an 8 second conditioning prepulse to the empirically determined V1/2 (Table B). Compound effect (% inhibition) was determined by difference in current amplitude before and after application of test compounds. […] Inhibition values <20% and >80% were excluded from the calculation.
In some cases electrophysiological assays were conducted with PatchXpress 7000 hardware and associated software (Molecular Devices Corp) (Table B). All assay buffers and solutions were identical to those used in conventional whole-cell voltage clamp experiments described above. hSCN3A cells were grown as above to 50%-80% confluency and harvested by trypsinization. Trypsinized cells were washed and resuspended in extracellular buffer at a concentration of 1×10^6 cells/ml. The onboard liquid handling facility of the PatchXpress was used for dispensing cells and application of test compounds. Determination of the voltage midpoint of inactivation was as described for conventional whole-cell recordings. Cells were then voltage-clamped to the empirically determined V1/2 and current was activated by a 20 msec voltage step to 0 mV.

hSCN3A sodium channels [2] = target: T1, hSCN3A sodium channels; experiment: hSCN3A electrophysiology, Ionworks Quattro automated platform (Table C); assay type: cell-based; conditions: for inhibition at 3 µM: 3 μM compound, read-out: SCN3A % INHIB HTS IWQ 3 μM; for inhibition at 10 µM: 10 μM compound, read-out: SCN3A % INHIB HTS IWQ 10 μM
Summary of the method: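 HEK cells stably expressing hSCN3A were recorded in perforated-patch mode with 100 μg/ml amphotericin on Ionworks Quattro. The protocol used an inactivating step, a brief hyperpolarized partial recovery, then a depolarized test step. Inhibition was taken from current amplitude before versus after compound addition.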

[3] = estimated IC-50, hSCN3A cells, whole-cell patch-clamp or PatchXpress 7000, read-out: SCN3A EIC-50

T1 sequence (Q9NY46 whole entry): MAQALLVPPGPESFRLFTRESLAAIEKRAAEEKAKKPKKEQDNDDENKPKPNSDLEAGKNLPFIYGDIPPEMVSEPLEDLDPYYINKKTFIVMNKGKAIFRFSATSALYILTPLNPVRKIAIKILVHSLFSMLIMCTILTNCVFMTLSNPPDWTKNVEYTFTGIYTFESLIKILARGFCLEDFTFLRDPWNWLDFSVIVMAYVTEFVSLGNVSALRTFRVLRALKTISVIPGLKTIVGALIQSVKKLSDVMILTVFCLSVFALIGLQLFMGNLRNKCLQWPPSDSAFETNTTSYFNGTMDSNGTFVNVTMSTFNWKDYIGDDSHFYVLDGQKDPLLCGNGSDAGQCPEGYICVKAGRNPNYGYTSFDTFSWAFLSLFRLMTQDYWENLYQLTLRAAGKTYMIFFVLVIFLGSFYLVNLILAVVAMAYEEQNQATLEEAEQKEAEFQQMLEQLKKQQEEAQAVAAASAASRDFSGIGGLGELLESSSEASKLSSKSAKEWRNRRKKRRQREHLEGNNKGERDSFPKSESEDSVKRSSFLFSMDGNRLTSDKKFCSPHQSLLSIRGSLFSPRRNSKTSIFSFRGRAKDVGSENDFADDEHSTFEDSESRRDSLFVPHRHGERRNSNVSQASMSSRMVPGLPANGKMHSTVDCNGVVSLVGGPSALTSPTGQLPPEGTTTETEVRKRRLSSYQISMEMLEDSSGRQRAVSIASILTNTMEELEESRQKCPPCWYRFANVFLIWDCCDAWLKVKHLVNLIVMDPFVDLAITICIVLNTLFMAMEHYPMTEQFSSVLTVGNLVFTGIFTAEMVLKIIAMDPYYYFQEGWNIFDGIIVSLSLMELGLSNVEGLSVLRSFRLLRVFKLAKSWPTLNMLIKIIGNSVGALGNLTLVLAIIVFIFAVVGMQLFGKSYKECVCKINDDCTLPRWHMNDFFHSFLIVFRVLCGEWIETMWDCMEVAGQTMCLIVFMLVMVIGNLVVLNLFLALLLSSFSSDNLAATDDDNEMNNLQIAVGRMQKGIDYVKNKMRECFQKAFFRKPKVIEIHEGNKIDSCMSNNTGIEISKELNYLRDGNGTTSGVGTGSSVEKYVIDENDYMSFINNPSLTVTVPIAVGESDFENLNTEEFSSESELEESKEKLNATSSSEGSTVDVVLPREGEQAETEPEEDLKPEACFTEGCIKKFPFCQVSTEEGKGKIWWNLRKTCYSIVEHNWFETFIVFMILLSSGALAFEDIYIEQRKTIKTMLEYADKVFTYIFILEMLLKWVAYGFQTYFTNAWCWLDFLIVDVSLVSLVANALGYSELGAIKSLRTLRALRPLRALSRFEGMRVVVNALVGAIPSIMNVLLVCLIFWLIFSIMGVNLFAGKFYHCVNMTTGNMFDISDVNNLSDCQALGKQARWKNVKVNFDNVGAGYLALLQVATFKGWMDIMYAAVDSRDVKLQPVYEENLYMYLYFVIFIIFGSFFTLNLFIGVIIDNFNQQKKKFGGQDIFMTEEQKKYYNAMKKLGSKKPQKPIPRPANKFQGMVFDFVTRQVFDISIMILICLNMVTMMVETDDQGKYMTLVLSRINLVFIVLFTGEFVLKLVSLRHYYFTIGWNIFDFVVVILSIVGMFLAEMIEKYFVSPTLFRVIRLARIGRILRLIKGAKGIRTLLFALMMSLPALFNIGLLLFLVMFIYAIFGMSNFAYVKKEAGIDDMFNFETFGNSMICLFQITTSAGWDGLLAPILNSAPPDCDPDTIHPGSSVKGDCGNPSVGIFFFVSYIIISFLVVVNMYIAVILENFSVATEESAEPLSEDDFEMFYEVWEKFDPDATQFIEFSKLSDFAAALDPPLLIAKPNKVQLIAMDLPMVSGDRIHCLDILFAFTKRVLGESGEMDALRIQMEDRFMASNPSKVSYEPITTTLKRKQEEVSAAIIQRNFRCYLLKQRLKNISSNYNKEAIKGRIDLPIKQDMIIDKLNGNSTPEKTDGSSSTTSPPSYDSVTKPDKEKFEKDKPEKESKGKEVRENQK

| SMILES | IC50 (hSCN3A sodium channels [1]; [3]) | further results |
| --- | --- | --- |
| O=C(NCc1ccc(OC(F)(F)F)c(F)c1)c1ccc(S(=O)(=O)Nc2nccs2)cn1 [Example 343, N-[3-fluoro-4-(trifluoromethoxy)benzyl]-5-[(1,3-thiazol-2-ylamino)sulfonyl] pyridine-2-carboxamide] | 310 nM | – |
| O=C(c1ccc(S(=O)(=O)Nc2nccs2)cc1)N1CCOC(COc2cc(F)cc(F)c2)C1 (stereo not drawn) [Example 262, 4-({2-[(3,5-Difluorophenoxy)methyl]morpholin-4-yl}carbonyl)-N-1,3-thiazol-2-ylbenzenesulfonamide] | 6850 nM | – |
| CCc1nsc(NS(=O)(=O)c2ccc(C(=O)NCc3ccc(C(F)(F)F)cc3)cc2)n1 [Example 19, 4-{[(3-Ethyl-1,2,4-thiadiazol-5-yl)amino]sulfonyl}-N-[4-(trifluoromethyl)benzyl]benzamide] | 13800 nM | – |
| O=C(NCc1ccc(F)c(OC(F)(F)F)c1)c1ccc(S(=O)(=O)Nc2ncc(Cl)s2)c(F)c1 [Example 313, 4-{[(5-Chloro-1,3-thiazol-2-yl)amino]sulfonyl}-3-fluoro-N-[4-fluoro-3-(trifluoromethoxy)benzyl]benzamide] | 160 nM | – |
| O=C(NCCOc1cccc(Cl)c1)c1ccc(S(=O)(=O)Nc2nccs2)cc1 [Example 144, N-[2-(3-chlorophenoxy)ethyl]-4-[(1,3-thiazol-2-ylamino)sulfonyl]benzamide] | 1180 nM | – |
| O=C(NCc1ccc(F)c(F)c1)c1ccc(S(=O)(=O)Nc2ncc(Cl)s2)cc1F [Example 361, 4-{[(5-Chloro-1,3-thiazol-2-yl)amino]sulfonyl}-N-(3,4-difluorobenzyl)-2-fluorobenzamide] | 310 nM | – |
| O=C(NCc1ccc(Cl)c(Cl)c1)c1ccc(S(=O)(=O)Nc2ncc(Cl)s2)c(Cl)c1 [Example 368, 3-Chloro-4-{[(5-chloro-1,3-thiazol-2-yl)amino]sulfonyl}-N-(3,4-dichlorobenzyl) benzamide] | 400 nM | – |
| O=C(NCc1cccc(C(F)(F)F)c1)c1ccc(S(=O)(=O)Nc2ncc(Cl)s2)cc1 [Example 28, 4-{[(5-Chloro-1,3-thiazol-2-yl)amino]sulfonyl}-N-[3-(trifluoromethyl)benzyl]benzamide] | 240 nM | – |
| Cc1cc(NS(=O)(=O)c2ccc(C(=O)NCc3ccc(C(F)(F)F)cc3)cc2)no1 [Example 18, 4-{[(5-Methylisoxazol-3-yl)amino]sulofnyl}-N-[4-(trifluoromethyl)benzyl]benzamide] | 2260 nM | – |
| O=C(NCc1ccc(C(F)(F)F)cc1)c1cccc(S(=O)(=O)Nc2nncs2)c1 [Example 350, 3-[(1,3,4-Thiadiazol-2-ylamino)sulfonyl]-N-[4-(trifluoromethyl)benzyl]benzamide] | – | IC50 (hSCN3A sodium channels [1]): > 10000 nM |
| O=C(NCc1ccc(OC(F)(F)F)cc1)c1ccc(S(=O)(=O)Nc2ncc(Cl)s2)cc1F [Example 360, 4-{[(5-Chloro-1,3-thiazol-2-yl)amino]sulfonyl}-2-fluoro-N-[4-(trifluoromethoxy)benzyl]benzamide] | 160 nM | – |
| O=C(NCc1ccc(OC(F)(F)F)c(F)c1)c1ccc(S(=O)(=O)Nc2ncns2)cc1 [Example 321, N-[3-fluoro-4-(trifluoromethoxy)benzyl]-4-[(1,2,4-thiadiazol-5-ylamino)sulfonyl]benzamide] | 40 nM | – |
| O=C(NCc1ccc(C(F)(F)F)cc1)c1ccc(S(=O)(=O)Nc2ncc(Cl)s2)cc1Cl [Example 338, 2-Chloro-4-{[(5-chloro-1,3-thiazol-2-yl)amino]sulfonyl}-N-[4-(trifluoromethyl)benzyl] benzamide] | 1070 nM | – |
| O=C(NCc1ccc(F)c(F)c1)c1ccc(S(=O)(=O)Nc2nccs2)cc1F [Example 329, N-(3,4-difluorobenzyl)-2-fluoro-4-[(1,3-thiazol-2-ylamino)sulfonyl] benzamide] | 360 nM | – |
| O=C(NCc1ccc(F)c(F)c1)c1ccc(S(=O)(=O)Nc2nccs2)c(F)c1 [Example 298, N-(3,4-difluorobenzyl)-3-fluoro-4-[(1,3-thiazol-2-ylamino)sulfonyl]benzamide] | 160 nM | – |
| O=C(c1ccc(S(=O)(=O)Nc2nccs2)cc1)N1CCC[C@H]1COc1cccc(Cl)c1 [Example 384, 4-({(2S)-2-[(3-chlorophenoxy)methyl]pyrrolidin-1-yl}carbonyl)-N-1,3-thiazol-2-ylbenzenesulfonamide] | 350 nM | – |
| N#CCCN(Cc1ccccc1)C(=O)c1ccc(S(=O)(=O)Nc2nccs2)cc1 [Example 218, N-benzyl-N-(2-cyanoethyl)-4-[(1,3-thiazol-2-yl-amino)sulfonyl]benzamide] | 21200 nM | – |
| CC1(c2ccc(Cl)cc2)CCN(C(=O)c2ccc(S(=O)(=O)Nc3nccs3)cc2)CC1 [Example 195, 4-{[4-(4-Chlorophenyl)-4-methylpiperidin-1-yl]carbonyl}-N-1,3-thiazol-2-yl-benzenesulfonamide] | 280 nM | – |
| O=C(NCC1(c2ccc(Cl)cc2)CC1)c1ccc(S(=O)(=O)Nc2ncns2)c(F)c1 [Example 382, N-{[1-(4-chlorophenyl)cyclopropyl]methyl}-3-fluoro-4-[(1,2,4-thiadiazol-5-ylamino)sulfonyl]benzamide] | 140 nM | – |
| O=C(NCc1ccc(C(F)(F)F)c(F)c1)c1ccc(S(=O)(=O)Nc2nccs2)c(F)c1 [Example 304, 3-Fluoro-N-[3-fluoro-4-(trifluoromethyl)benzyl]-4-[(1,3-thiazol-2-yl-amino)sulfonyl]benzamide] | 70 nM | – |
| COC(=O)c1csc(NS(=O)(=O)c2ccc(C(=O)NCc3ccc(C(F)(F)F)cc3)cc2)n1 [Example 17, Methyl 2-({[4-({[4-(trifluoromethyl)benzyl]amino}carbonyl)phenyl]sulfonyl}amino)-1,3-thiazole-4-carboxylate] | 2940 nM | – |
| CC(CNC(=O)c1ccc(S(=O)(=O)Nc2nccs2)cc1)Oc1ccccc1Cl (stereo not drawn) [Example 147, N-[2-(2-chlorophenoxy)propyl]-4-[(1,3-thiazol-2-ylamino)sulfonyl]benzamide] | 2520 nM | – |
| O=C(c1ccc(S(=O)(=O)Nc2nccs2)cc1)N1CCCC(COc2ccccc2)C1 (stereo not drawn) [Example 267, 4-{[3-(Phenoxymethyl)piperidin-1-yl]carbonyl}-N-1,3-thiazol-2-yl-benzenesulfonamide] | – | inhibition at 3 µM (hSCN3A sodium channels [2]): 30.1%; inhibition at 10 µM (hSCN3A sodium channels [2]): 23.1% |
| O=C(N[C@H]1CCC[C@@H]1c1ccccc1)c1ccc(S(=O)(=O)Nc2nccs2)cc1 [Example 131, N-[(1S,2R)-2-phenylcyclopentyl]-4-[(1,3-thiazol-2-ylamino)sulfonyl]benzamide] | – | inhibition at 3 µM (hSCN3A sodium channels [2]): 27.2%; inhibition at 10 µM (hSCN3A sodium channels [2]): 13.1% |
| CN(CC1Cc2ccccc2O1)C(=O)c1ccc(S(=O)(=O)Nc2nccs2)cc1 (stereo not drawn) [Example 274, N-(2,3-dihydro-1-benzofuran-2-ylmethyl)-N-methyl-4-[(1,3-thiazol-2-ylamino)sulfonyl]benzamide] | – | inhibition at 3 µM (hSCN3A sodium channels [2]): 14.6%; inhibition at 10 µM (hSCN3A sodium channels [2]): 19.6% |
| N#Cc1cccc(OC2CCCN(C(=O)c3ccc(S(=O)(=O)Nc4nccs4)cc3)C2)c1 (stereo not drawn) [Example 265, 4-{[3-(3-Cyanophenoxy)piperidin-1-yl]carbonyl}-N-1,3-thiazol-2-yl-benzenesulfonamide] | – | inhibition at 3 µM (hSCN3A sodium channels [2]): 22.6%; inhibition at 10 µM (hSCN3A sodium channels [2]): 44.3%; SCN3A INHIB INACT DRC EP IWQ EMAX (hSCN3A sodium channels [2]; Emax of dose-response curve, inactivated state): 32.2 |
| CC(C)N(Cc1ccccc1)C(=O)c1ccc(S(=O)(=O)Nc2nccs2)cc1 [Example 187, N-benzyl-N-isopropyl-4-[(1,3-thiazol-2-ylamino)sulfonyl]benzamide] | – | inhibition at 3 µM (hSCN3A sodium channels [2]): 5.69%; inhibition at 10 µM (hSCN3A sodium channels [2]): 4.2% |

— patent publication US8741934B2, “Inhibitors of ion channels” (Pfizer Limited, priority 2007, dated 2014)
